Results as given in patent publication US6525065B1, “Pharmaceutical compositions and methods for effecting dopamine release” (priority 1997, dated 2003).
Where a name gives a salt, the structure may show the parent alone. Read-outs that look alike come from different tables or passages of the source.

How the values were obtained:
dopamine release = assay: cells; type: cell-based; conditions: for EC50: read-out: Dopamine Release EC50; for Dopamine Release Ecmax: amount released relative to (S)-(-)-nicotine on a percentage basis
[1] = biological target: T1, muscle-type nicotinic acetylcholine receptors (Homo sapiens, UniProt P02708+P07510+Q07001); assay: cell-based
T1 construct: endogenous in cells; host or cells: TE671/RD (own knowledge of the cited US 5,597,919)
T1 sequence (P02708 21-457): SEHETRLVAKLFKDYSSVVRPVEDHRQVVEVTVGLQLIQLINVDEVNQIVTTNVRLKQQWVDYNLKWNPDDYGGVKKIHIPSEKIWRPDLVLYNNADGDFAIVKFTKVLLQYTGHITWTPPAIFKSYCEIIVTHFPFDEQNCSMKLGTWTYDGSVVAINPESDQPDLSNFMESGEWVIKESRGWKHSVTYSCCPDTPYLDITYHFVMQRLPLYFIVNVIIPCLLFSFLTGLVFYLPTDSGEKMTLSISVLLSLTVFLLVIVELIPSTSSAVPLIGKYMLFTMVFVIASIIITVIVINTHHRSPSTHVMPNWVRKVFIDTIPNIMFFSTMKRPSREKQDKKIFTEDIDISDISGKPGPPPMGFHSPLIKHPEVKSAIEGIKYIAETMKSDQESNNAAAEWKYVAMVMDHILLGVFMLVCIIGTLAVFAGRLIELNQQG
T1 sequence (P11230 24-501 partner): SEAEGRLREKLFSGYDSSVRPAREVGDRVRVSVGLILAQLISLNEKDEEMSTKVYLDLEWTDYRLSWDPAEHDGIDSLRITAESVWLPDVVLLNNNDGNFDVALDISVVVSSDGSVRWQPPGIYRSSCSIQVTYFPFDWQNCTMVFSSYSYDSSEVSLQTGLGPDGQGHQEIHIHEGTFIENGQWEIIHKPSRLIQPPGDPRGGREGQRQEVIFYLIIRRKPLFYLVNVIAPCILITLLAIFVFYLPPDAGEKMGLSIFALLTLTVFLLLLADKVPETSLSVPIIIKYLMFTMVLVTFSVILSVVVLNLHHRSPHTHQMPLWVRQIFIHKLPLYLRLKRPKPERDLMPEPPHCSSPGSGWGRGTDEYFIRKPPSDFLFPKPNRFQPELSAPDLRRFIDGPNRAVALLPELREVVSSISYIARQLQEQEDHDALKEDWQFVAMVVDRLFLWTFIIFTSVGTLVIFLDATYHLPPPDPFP
T1 sequence (Q07001 22-517): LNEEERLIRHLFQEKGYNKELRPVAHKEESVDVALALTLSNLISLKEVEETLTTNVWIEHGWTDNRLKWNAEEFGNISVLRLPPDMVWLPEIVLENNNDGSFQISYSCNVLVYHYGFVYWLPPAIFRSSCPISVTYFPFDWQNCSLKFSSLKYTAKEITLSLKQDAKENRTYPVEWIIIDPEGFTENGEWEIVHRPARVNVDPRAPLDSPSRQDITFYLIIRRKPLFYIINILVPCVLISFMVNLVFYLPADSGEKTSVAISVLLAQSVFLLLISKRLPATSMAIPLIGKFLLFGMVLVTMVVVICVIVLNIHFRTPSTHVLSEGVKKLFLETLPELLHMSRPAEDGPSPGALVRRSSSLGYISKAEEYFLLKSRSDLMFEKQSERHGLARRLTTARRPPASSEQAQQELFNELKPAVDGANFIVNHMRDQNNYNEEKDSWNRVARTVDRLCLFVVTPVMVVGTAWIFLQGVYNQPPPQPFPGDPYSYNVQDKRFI
T1 sequence (P07510 23-517): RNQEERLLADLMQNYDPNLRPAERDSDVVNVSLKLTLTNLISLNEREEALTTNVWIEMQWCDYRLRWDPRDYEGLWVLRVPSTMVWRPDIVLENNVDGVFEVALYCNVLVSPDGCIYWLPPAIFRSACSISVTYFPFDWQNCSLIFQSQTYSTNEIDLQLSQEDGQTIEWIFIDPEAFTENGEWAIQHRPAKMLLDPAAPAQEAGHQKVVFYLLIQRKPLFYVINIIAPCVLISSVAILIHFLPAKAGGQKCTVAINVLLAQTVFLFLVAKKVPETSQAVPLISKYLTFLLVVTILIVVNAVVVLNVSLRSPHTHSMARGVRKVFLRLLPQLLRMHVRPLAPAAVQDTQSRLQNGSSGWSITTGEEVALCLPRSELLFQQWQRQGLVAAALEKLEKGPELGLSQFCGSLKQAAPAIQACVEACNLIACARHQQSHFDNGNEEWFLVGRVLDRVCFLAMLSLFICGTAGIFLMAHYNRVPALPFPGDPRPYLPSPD

[2] = biological target: ganglionic-type nicotinic acetylcholine receptors (Rattus norvegicus, UniProt P04757+P12392); assay: cell-based; conditions: read-out: Ganglion Effect Ecmax
ganglionic-type nicotinic acetylcholine receptors, sequence (P04757 26-499): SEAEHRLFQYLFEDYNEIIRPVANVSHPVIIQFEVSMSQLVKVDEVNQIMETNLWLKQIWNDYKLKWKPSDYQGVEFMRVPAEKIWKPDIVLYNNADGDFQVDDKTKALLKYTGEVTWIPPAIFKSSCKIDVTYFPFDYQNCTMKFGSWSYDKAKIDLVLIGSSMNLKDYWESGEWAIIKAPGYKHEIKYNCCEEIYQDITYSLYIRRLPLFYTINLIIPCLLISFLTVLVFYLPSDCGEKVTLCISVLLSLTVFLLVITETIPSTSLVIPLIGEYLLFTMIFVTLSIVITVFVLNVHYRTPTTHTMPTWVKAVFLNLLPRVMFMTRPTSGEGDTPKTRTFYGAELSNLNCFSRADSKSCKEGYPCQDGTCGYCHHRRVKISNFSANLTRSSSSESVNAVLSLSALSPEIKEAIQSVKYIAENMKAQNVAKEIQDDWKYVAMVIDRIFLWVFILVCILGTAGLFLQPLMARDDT
ganglionic-type nicotinic acetylcholine receptors, sequence (P12392 21-495): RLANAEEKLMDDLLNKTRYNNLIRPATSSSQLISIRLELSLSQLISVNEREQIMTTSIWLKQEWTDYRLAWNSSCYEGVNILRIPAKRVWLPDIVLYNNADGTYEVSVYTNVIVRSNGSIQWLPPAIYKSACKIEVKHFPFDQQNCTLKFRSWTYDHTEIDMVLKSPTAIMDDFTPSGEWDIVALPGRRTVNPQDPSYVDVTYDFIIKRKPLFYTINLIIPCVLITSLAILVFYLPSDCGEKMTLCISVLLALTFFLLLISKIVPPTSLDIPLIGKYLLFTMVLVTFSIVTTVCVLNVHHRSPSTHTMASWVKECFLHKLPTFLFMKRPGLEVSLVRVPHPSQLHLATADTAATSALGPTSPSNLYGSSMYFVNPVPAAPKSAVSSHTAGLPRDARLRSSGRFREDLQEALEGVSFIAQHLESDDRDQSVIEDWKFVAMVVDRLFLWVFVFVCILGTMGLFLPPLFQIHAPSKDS

[3] = read-out: Dopamine Release Ecmax
[4] = read-out: Dopamine Release Ecmax, amount released relative to (S)-(-)-nicotine on a percentage basis
[5] = maximal activation as percentage of that induced by (S)-(-)-nicotine

Row | SMILES | EC50 (dopamine release) | Emax (dopamine release; [3]) | Muscle Effect Ecmax [1] | Emax [2] | Emax (dopamine release; [4]) | EC50 [1] | Muscle Effect Ecmax [1, 5] | Dopamine Release Ecmax (dopamine release) | amounts causing muscle effects and effects upon ganglia relative to those required to cause dopamine release (dopamine release; selectivity of dopamine release over muscle and ganglion effects) | EC50 ([1]; read-out: Muscle Effect EC50) | Emax [2, 5]
1 | c1cncc(C2CC3CCN2CC3)c1 (racemic) [Sample No. 1, (+/−)-1-aza-2-(3-pyridyl)bicyclo[2.2.2]octane] | 2 nM | 40% | 110% | 85% |  |  |  |  |  |  | 
2 | c1cncc(C2C3CCN2CC3)c1 (stereo not drawn) [Sample No. 5, 1-aza-7-(3-pyridyl)bicyclo[2.2.1]heptane] | 4 nM |  |  | 120% | 93% | 300 nM | 130% |  |  |  | 
3 | Brc1cncc(C2CC3CCN2CC3)c1 (racemic) [Sample No. 2] | 2 nM |  |  | 106% |  |  | 133% | 43% |  |  | 
4 | CCOc1cncc(C2CC3CCN2CC3)c1.Cl.Cl (stereo not drawn) [Sample No. 7, 5-(1-azabicyclo[2.2.2]oct-2-yl)-3-(ethoxy)pyridine dihydrochloride] | 5 nM |  |  | 86% | 40% | 700 nM | 137% |  |  |  | 
5 | Nc1cncc(C2CC3CCN2CC3)c1 (stereo not drawn) [Sample No. 6, 5-(1-azabicyclo[2.2.2]oct-2-yl-3-(amino)pyridinetrihydrochloride] | 7 nM |  |  |  |  |  | 100% | 43% | many times | 3000 nM | 75%
6 | CN1CCC[C@H]1c1cccnc1 [Sample No. C-1, (S)-(−)-nicotine, reference compound] | 115 nM | 100% | 100% |  |  | 60000 nM |  |  |  |  | 
7 | CC(C)Oc1cncc(C2CC3CCN2CC3)c1 (stereo not drawn) [Sample No. 8, 5-(1-azabicyclo[2.2.2]oct-2-yl-3-(isopropyloxy)pyridinedihydrochloride] |  |  |  | 94% |  |  |  |  |  | 3000 nM | 
8 | c1cncc([C@H]2C[C@@H]3CCN2C3)c1 (relative stereo) [Sample No. 3, exo 1-aza-2-(3-pyridyl)bicyclo[2.2.1]heptane] | 6 nM |  |  | 100% | 130% | 100 nM | 130% |  |  |  | 
9 | c1cncc([C@@H]2C[C@@H]3CCN2C3)c1 (relative stereo) [Sample No. 4, endo-1-aza-2-(3-pyridyl)bicyclo[2.2.1]heptane] | 33 nM |  |  |  |  |  | 130% | 114% |  | 100 nM | 
